Assay results reported in patent US20030153081A1, “Viral core protein-cationic lipid-nucleic acid-delivery complexes” (priority 1999, published 2003).

Assays:
[1] = charge ratios worked out from the sequence; type: physicochemical
Text: Mu1 is a polycationic peptide comprised of 19 amino acids associated with the core complex of Adenovirus (Table 1) ^27, 32. We compared the DNA binding capacity of Mu1 with the mouse polyomavirus major capsid protein Vp1 by interaction with plasmid DNA in a gel retardation assay. Vp1 is a 19 amino acid peptide that contains a nuclear localization signal ^26 and contains fewer positively charged amino acids than Mu1. It was therefore predicted to have a lower DNA binding capacity.
The success of non-viral gene delivery vehicles as viable alternatives to virus vector-based systems is dependent on the development of complexes with higher and longer lasting transfection efficiencies. Since the initial identification of cationic liposomes as vehicles for the transfer of genetic material into cells there has been a large push to develop better cationic liposome formulations ^5, 7. Most attempts at improving cationic liposomes have been based on structural modifications to the molecule itself ^30. Novel formulations have been developed which have improved transfection efficiencies ^30. However, particular cell types behave differently in regards to cationic liposomal transfection. For example, we found the polypeptide Mu1 better at enhancing cationic liposome mediated transfection than Vp1. This was probably due to Mu1's greater charge ratio. While both peptides are approximately the same molecular weight, the overall charge ratio of Mu1 was more than twice that of Vp1 (Table 1). […] While a small shift in pDNA mobility was detected when 0.25 μg Mu1 was complexed to 1 μg pCMVβ, almost all of the plasmid was retained near the loading well following addition of 0.5 μg Mu1 (FIG. 1). A 0.5/1.0 (w/w) ratio of Mu1 to pCMVβ corresponds to a 1000/1 molar ratio. Each molecule of Mu1 contains 12 residues that could potentially carry a positive charge. The theoretical charge ratio of Mu1 to pCMVβ would then be 1.6 (12000 Mu1 cations to 7500 pCMVβ anions).

plasmid DNA (pCMVβ) = test: gel retardation assay (DNA binding analysis)
Experimental: One microgram of pCMVβ was incubated with 0 μg (lane 2), 5 μg (lane 3), 10 μg (lane 4), 15 μg (lane 5), 20 μg (lane 6), 25 μg (lane 7) and 30 μg (lane 8) of BSA for 10 minutes at room temperature in 1× HBS. Samples were then analyzed on a 1% agarose gel for altered mobility.
When ratios of 0.5 (w/w) or greater were used, however, migration of both forms of pDNA was severely retarded.
C). The Polyomavirus protein Vp1 was much less efficient at preventing pDNA migration. pCMVβ (1 μg) was incubated with 2 μg (lane 2), 4 μg (lane 3), 6 μg (lane 4), 8 μg (lane 5), 16 μg (lane 6), 32 μg (lane 7) and 0 μg (lane 8) Vp1. Only ratios of 6 or higher (protein: pDNA, w/w) caused significant retardation of supercoiled pDNA (lane 6, lower band). Also, not until a ratio of 32 (w/w) was used was there any effect on relaxed pDNA (lane 7, upper band). In all gels lane 1 corresponds to 1 Kb DNA marker (BRL).
The purified peptides were reconstituted in sterile distilled H2O at 3 mg/mL. Peptide and pDNA were complexed in 20 μL HEPES buffered saline (137 mM NaCl, 5 mM KCl, 0.75 mM Na2HPO4, 19 mM HEPES, pH 7.4) for 20 minutes at room temperature. Peptide: pDNA complexes were subsequently analyzed by agarose gel electrophoresis (1%). Control incubations for general macromolecular pDNA interactions were performed with varying amounts of molecular biology grade purified bovine serum albumin (Sigma).
Varying amounts of purified peptide were incubated at room temperature in HBS for approximately 10 minutes and then analyzed by agarose gel electrophoresis. Without the addition of peptide, supercoiled and relaxed circular plasmid DNA (pDNA) migrated in the expected manner (FIG. 1, lane 8).

Swiss 3T3 cells = test: β-galactosidase assay, Mu1 vs protamine in confluent Swiss 3T3 cells; type: cell-based; conditions: liposome (B198:DOPE 3:2):peptide:DNA 12:0.6:1, final DNA concentration 5.0 μg/l, 1 or 2 h
Text: Protamine is a naturally occurring cationic peptide abundant in piscine sperm and is potent in neutralising and condensing DNA. The transfection activity of protamine was compared with that of Mu1 peptide. Mu1 peptide or protamine sulfate (Sigma, grade X from Salmon) was complexed with DNA (pCMVβ) and then cationic liposomes (B 198:DOPE in a ratio of 3:2 m/m) giving a liposome:peptide:DNA ratio of 12:0.6:1 (w/w/w).
The transfection activities were examined in Swiss 3T3 cells. The cells were seeded at an approximate density of 2×10^4 per well in a 24-well culture plate in DMEM supplemented with 10% FCS and grown for 48 h to complete confluence in the presence of 5% CO2 at 37° C. Cells were washed by brief exposure to DMEM and then treated with solutions containing LMD or LD complexes, prediluted with DMEM (final DNA concentration 5.0 μg/l in all cases), for 1 or 2 h. Cells were then washed again and incubated for a further 48 h in DMEM supplemented with 10% FCS prior to harvesting. The level of β-galactosidase enzyme activity was determined with a standard assay kit (Promega).

Substance: H-MRRAHHRRRRASHRRMRGG-OH [Mu1]
- Charge/AA ratio [1]: 0.63
- theoretical charge ratio of Mu1 to pCMVβ ([1]; 0.5/1.0 (w/w) Mu1 to pCMVβ, 12000 cations to 7500 anions): 1.6
- ratio of protein to pDNA giving slight retardation of supercoiled pDNA, relaxed form not altered (plasmid DNA (pCMVβ); 1 μg pCMVβ, 1% agarose gel): 0.25 w/w
- ratio of protein to pDNA at or above which migration of both forms of pDNA was severely retarded (plasmid DNA (pCMVβ); 1 μg pCMVβ, 1x HBS, 1% agarose gel): ≥ 0.5 w/w
- concentration retarding electrophoretic mobility of plasmid DNA relative to Vp1 (plasmid DNA (pCMVβ); Mu1 vs Vp1): 1/60
- concentration in solution, pDNA retardation (plasmid DNA (pCMVβ); gel retardation complexes, 20 μL): 25 ng/mL
- transfection compared with complexes comprising protamine (Swiss 3T3 cells): better transfection
